Results reported in the kinase profiling compilation of Christmann-Franck et al. (2016).

Tests used:
Assay in all cases: radiometric filter-binding kinase assay, Kinase HotSpot
Conditions in all cases: compound 0.5 µM; ATP 10 µM
BRAF (human) = BRAF (human) (UniProt P15056)
STK38 (human) = STK38 (human) (UniProt Q15208)
TLK2 (human) = TLK2 (human) (UniProt Q86UE8)
Sequence of TLK2 (human) (Q86UE8 whole entry, looked up): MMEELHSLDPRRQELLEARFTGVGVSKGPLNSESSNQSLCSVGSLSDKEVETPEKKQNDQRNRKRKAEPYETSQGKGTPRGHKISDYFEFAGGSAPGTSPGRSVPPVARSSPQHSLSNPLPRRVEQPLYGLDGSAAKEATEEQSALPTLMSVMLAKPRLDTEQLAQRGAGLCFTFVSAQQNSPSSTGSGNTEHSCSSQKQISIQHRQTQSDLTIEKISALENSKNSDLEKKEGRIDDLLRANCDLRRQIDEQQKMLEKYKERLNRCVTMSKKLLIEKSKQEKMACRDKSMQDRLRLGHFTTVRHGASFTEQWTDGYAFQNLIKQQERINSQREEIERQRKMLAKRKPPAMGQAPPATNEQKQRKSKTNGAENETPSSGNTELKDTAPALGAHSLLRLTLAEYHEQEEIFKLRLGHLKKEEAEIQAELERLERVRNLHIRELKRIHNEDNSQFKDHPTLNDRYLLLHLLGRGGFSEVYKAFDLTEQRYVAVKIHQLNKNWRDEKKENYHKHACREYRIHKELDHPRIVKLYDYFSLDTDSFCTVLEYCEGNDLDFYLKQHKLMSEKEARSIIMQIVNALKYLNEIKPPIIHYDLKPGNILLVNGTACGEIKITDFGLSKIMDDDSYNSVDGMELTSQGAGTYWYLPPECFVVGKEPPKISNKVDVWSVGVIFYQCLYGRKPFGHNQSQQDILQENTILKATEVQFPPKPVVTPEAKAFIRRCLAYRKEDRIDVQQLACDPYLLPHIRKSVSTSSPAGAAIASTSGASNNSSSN

Sequence of BRAF (human) (P15056 whole entry, looked up): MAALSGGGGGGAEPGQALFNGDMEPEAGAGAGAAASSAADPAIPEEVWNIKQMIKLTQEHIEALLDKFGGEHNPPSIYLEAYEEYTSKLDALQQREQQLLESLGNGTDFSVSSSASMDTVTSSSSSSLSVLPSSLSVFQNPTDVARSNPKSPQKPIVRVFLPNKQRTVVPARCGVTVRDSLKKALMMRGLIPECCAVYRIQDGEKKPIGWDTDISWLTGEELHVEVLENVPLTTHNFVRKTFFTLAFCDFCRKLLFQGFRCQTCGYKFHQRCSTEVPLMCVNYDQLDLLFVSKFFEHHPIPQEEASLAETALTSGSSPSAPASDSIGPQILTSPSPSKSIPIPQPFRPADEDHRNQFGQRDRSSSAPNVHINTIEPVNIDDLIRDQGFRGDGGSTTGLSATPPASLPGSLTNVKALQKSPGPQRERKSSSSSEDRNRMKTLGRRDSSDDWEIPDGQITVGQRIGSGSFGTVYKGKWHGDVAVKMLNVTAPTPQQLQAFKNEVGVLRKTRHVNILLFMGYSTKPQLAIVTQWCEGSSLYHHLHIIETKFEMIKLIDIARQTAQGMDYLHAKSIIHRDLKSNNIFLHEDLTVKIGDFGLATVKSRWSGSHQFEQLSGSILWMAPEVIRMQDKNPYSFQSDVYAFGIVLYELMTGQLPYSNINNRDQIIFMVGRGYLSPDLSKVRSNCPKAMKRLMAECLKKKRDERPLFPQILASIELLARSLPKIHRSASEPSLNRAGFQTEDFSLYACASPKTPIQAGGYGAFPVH
Sequence of STK38 (human) (Q15208 whole entry, looked up): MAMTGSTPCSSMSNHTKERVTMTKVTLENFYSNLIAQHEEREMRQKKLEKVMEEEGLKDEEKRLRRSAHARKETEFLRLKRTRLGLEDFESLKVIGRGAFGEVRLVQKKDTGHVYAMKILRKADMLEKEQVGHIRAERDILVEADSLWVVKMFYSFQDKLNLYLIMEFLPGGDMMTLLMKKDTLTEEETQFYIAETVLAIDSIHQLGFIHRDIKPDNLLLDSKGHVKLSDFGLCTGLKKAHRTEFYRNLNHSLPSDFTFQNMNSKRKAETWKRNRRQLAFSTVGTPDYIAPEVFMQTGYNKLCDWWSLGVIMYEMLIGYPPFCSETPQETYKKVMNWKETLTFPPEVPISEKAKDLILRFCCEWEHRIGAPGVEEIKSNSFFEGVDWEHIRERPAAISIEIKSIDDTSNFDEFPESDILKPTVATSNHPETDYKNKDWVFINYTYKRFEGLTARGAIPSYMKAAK

SMILES | residual activity (BRAF (human)) [%] | residual activity (STK38 (human)) [%] | residual activity (TLK2 (human)) [%]
CN(C)c1ccc(/C=C2\C(=O)Nc3ccccc32)cc1 | 101 | – | –
COc1ccc2c(c1)/C(=C/c1cnc[nH]1)C(O)=N2 | 98.4 | 86.2 | –
C[C@@H]1CCN(C(=O)CC#N)C[C@@H]1N(C)c1ncnc2[nH]ccc12 | 93.7 | 95.7 | 94.4
CO[C@@H]1[C@H](N(C)C(=O)c2ccccc2)C[C@H]2O[C@]1(C)n1c3ccccc3c3c4c(c5c6ccccc6n2c5c31)C(=O)NC4 | 106 | 83.8 | 75
COc1ccc(Cl)cc1NC(=O)Nc1cc(C)nc2ccccc12 | 98.9 | – | –
Cc1cncc2cccc(S(=O)(=O)N3CCCN(C(=O)CN)C[C@H]3C)c12 | – | 97.1 | 97.7
Cn1c2ccccc2c2c3c(c4c5ccccc5n(CCC#N)c4c21)CNC3=O | 110 | – | –
O=C1C(Cl)=C(N2C(=O)CCC2=O)C(=O)c2ccccc21 | 96.3 | 102 | 117
Cc1cccc(-c2nc(C(C)(C)C)[nH]c2-c2ccc3c(c2)OCO3)n1 | 111 | 91.7 | 103
c1ccc2c(-c3ccncc3)c[nH]c2c1 | 94 | 109 | 95.8
N#Cc1c[nH]c2c[nH]/c(=N\Cc3cccnc3)cc2/c1=N\c1ccc(F)c(Cl)c1 | 106 | 93.9 | 106
O=C1Nc2ccc(Br)cc2/C1=C\c1cc2c([nH]1)CCCC2 | 92.5 | 80.1 | 101
CN(C)CCCn1cc(C2=C(c3c[nH]c4ccccc34)C(=O)NC2=O)c2ccccc21 | 103 | – | –
COc1cc(Nc2c(C#N)cnc3cc(OCCCN4CCN(C)CC4)c(OC)cc23)c(Cl)cc1Cl | 91.7 | 85.1 | 92.2
COc1ccc(S(=O)(=O)N(CCO)c2ccccc2CN(C)C/C=C/c2ccc(Cl)cc2)cc1 | – | 98.3 | 96.6
O=C1c2ccccc2-c2nc3nnnn3nc21 | – | 46.6 | 100
CS(=O)(=O)CCNCc1ccc(-c2ccc3ncnc(Nc4ccc(OCc5cccc(F)c5)c(Cl)c4)c3c2)o1 | – | 101 | 83.9
COc1cc2ncnc(Nc3ccc(Oc4ccccc4)cc3)c2cc1OC | 79.6 | 105 | 107
Fc1ccc(-c2nc3n(c2-c2ccncc2)CCS3)cc1 | – | 88 | 94.7
O=C(c1cc2cc(O)ccc2[nH]1)c1cc2cc(O)ccc2[nH]1 | 97.4 | – | –
O=C1NC(=O)c2c1c1c3ccccc3[nH]c1n1cncc21 | 101 | – | –
Cc1nc(-c2ccccc2)c(-c2ccncc2)o1 | – | 97.3 | 110
N#C/C(=C\c1ccc(O)c(O)c1)C(=O)NCc1ccccc1 | 109 | 99.1 | 105
CN(C)S(=O)(=O)c1ccc2c(c1)/C(=C/c1cc3c([nH]1)CCCC3)C(=O)N2 | 89.2 | 94.6 | 102
